Measured values from ChEMBL document CHEMBL1130989, “Design and synthesis of bio-isosteres of thymidine triphosphate” (Bioorg Med Chem Lett, 1998).

Assays:
CCRF-CEM [1] = assay: Dose required for no significant anti-HIV activity against HIV-1 in human lymphocyte CEM cells; assay type: functional, cell-based
CCRF-CEM [2] = assay: Dose required for no significant anti-HIV activity against HIV-2 in human lymphocyte CEM cells; assay type: functional, cell-based
[3] = target: Human immunodeficiency virus type 1 reverse transcriptase (Human immunodeficiency virus 1, UniProt Q72547); assay: Concentration required for no significant inhibitory activity against HIV-1 reverse transcriptase

Cc1cn(C2C=CC(CNC(=O)CC3(C)CC(O[Si](c4ccccc4)(c4ccccc4)C(C)(C)C)CN3C(=O)OC(C)(C)C)O2)c(=O)[nH]c1=O (stereo not given)
EC50 (CCRF-CEM [1]): > 200 µM | EC50 (CCRF-CEM [2]): > 200 µM | IC50 [3]: > 500 µM

Cc1cn(C2CC(O)C(CNC(=O)CC3(C)CC(O)CN3)O2)c(=O)[nH]c1=O (stereo not given)
EC50 (CCRF-CEM [1]): > 200 µM | EC50 (CCRF-CEM [2]): > 200 µM | IC50 [3]: > 500 µM

Cc1cn(C2C=CC(CNC(=O)CC3(C)CC(O)CN3)O2)c(=O)[nH]c1=O (stereo not given)
EC50 (CCRF-CEM [1]): > 200 µM | EC50 (CCRF-CEM [2]): > 200 µM | IC50 [3]: > 500 µM

Cc1cn(C2C=CC(CNC(=O)CC3(C)CC(O)CN3C(=O)OC(C)(C)C)O2)c(=O)[nH]c1=O (stereo not given)
EC50 (CCRF-CEM [1]): > 200 µM | EC50 (CCRF-CEM [2]): > 200 µM | IC50 [3]: > 500 µM

Cc1cn(C2CC(O[Si](C)(C)C(C)(C)C)C(CNC(=O)CC3(C)CC(O[Si](c4ccccc4)(c4ccccc4)C(C)(C)C)CN3C(=O)OC(C)(C)C)O2)c(=O)[nH]c1=O (stereo not given)
EC50 (CCRF-CEM [1]): > 200 µM | EC50 (CCRF-CEM [2]): > 200 µM | IC50 [3]: > 500 µM
